Source: ChEMBL document CHEMBL5321269, “Discovery, synthesis and biological evaluation of a series of N-(phenylcarbamothioyl)-2-napthamides as inhibitors of Claudin-1” (Bioorg Med Chem, 2023)

Key:
[1] = Protein binding in mouse plasma assessed as unbound fraction; assay type: ADME, cell-free
SW-620 = assay: Cytotoxicity against human SW620 cells assessed as cell growth inhibition at 25 uM relative to control; assay type: functional
[2] = Protein binding in human plasma assessed as unbound fraction; assay type: ADME, cell-free
CYP2C19 = CYP2C19 (Homo sapiens, UniProt P33261); assay: Inhibition of CYP2C19 (unknown origin) at 10 uM relative to control; assay type: ADME
[3] = Mean residence time in CD1 mouse at 5 mg/kg, ip; assay type: ADME, organism-based; details: in vivo
[4] = Half life in CD1 mouse at 5 mg/kg, ip; assay type: ADME, organism-based; details: in vivo
[5] = Tmax in CD1 mouse at 5 mg/kg, ip; assay type: ADME, organism-based; details: in vivo
[6] = Cmax in CD1 mouse at 5 mg/kg, ip; assay type: ADME, organism-based; parameters: dose 5 mg/kg, route ip; details: in vivo
CYP3A4 = CYP3A4 (Homo sapiens, UniProt P08684); assay: Inhibition of CYP3A4 (unknown origin) at 10 uM relative to control; assay type: ADME
CYP2D6 = CYP2D6 (Homo sapiens, UniProt P10635); assay: Inhibition of CYP2D6 (unknown origin) at 10 uM relative to control; assay type: ADME
[7] = AUCinfinity in CD1 mouse at 5 mg/kg, ip; assay type: ADME, organism-based; parameters: dose 5 mg/kg, route ip; details: in vivo

Chain of CYP2C19 (P33261 whole entry): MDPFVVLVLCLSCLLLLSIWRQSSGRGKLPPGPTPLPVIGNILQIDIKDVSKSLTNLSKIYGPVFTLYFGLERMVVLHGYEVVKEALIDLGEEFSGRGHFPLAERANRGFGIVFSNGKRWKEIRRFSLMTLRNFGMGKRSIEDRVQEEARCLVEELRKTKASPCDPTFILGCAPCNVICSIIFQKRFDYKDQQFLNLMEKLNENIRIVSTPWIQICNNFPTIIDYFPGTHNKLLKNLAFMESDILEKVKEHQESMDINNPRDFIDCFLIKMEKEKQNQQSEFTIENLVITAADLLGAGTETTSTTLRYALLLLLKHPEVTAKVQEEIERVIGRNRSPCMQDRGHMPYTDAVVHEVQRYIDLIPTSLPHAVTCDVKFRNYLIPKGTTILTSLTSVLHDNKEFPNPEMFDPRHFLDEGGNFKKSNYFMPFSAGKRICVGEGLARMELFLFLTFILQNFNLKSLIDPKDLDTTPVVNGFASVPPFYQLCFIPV
Chain of CYP2D6 (P10635 whole entry): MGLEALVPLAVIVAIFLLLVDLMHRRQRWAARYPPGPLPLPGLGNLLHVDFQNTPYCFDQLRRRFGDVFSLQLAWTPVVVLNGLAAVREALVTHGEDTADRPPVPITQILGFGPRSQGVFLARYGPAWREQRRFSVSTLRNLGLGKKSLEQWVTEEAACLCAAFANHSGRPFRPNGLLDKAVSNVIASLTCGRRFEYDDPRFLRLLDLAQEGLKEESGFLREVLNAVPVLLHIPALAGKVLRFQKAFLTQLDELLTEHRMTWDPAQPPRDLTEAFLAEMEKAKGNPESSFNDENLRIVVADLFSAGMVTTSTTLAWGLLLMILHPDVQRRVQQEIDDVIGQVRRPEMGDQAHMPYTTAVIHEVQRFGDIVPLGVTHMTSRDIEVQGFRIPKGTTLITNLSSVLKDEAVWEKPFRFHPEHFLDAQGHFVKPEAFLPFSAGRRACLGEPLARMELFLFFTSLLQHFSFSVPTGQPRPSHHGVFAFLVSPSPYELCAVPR
Chain of CYP3A4 (P08684 whole entry): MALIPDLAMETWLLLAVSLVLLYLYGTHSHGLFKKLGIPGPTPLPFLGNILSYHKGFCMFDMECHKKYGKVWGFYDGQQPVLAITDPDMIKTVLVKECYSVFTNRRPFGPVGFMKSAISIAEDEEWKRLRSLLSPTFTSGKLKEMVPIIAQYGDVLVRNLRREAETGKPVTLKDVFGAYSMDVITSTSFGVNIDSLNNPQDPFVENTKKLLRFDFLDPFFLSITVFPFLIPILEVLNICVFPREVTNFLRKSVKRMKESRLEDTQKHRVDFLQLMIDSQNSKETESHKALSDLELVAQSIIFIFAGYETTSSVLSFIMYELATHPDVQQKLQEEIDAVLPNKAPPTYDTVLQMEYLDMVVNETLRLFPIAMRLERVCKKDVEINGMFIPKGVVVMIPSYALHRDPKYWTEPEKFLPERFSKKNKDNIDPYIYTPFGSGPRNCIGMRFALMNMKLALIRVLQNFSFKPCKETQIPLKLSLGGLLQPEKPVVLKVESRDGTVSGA

SMILES	inhibition at 25 µM (SW-620)	further results
COc1cc2ccccc2cc1C(=O)NC(=S)Nc1ccc(-c2nc3ccccc3o2)cc1	57.6%	Fu [1]: < 0.03%
COc1cc2c(OC)cccc2cc1C(=O)NC(=S)Nc1ccc(-c2nc3ccccc3s2)cc1	15.8%	
O=C(NC(=S)Nc1ccc(-c2nc3ccccc3[nH]2)cc1)c1ccc2cccnc2c1	0%	
COc1cc2ccccc2cc1C(=O)NC(=S)Nc1ccc(-c2cscn2)cc1	29%	
O=C1c2ccccc2CCN1C(=S)Nc1ccc(-c2nc3ccccc3o2)cc1	0%	Fu [2]: < 0.03%
COc1cc2ccccc2cc1C(=O)NC(=S)Nc1ccc(-c2nccs2)cc1	34.8%	Fu [1]: 2.2%
COc1cc2ccccc2cc1C(=O)Nc1ncc(C(F)(F)F)s1	17.6%	
COc1cc2ccccc2cc1C(=O)NC(=S)Nc1ccc(-c2ncon2)cc1	18.4%	Fu [1]: < 0.03%
COc1cc2ccccc2cc1C(=O)NC(=S)Nc1ccc(-c2nc3ccccc3s2)cc1	7.1%	
COc1ccccc1C(=O)NC(=S)Nc1ccc(-c2nc3ccccc3[nH]2)cc1	16.9%	
O=C(NC(=S)Nc1ccc(-c2nc3ccccc3o2)cc1)c1ccc2ccccc2c1	76.4%	Fu [1]: < 0.03%; Fu [2]: < 0.04%
COc1cc2ccccc2cc1C(=O)NC(=S)Nc1ccc(-c2ncc[nH]2)cc1	89.9%	inhibition at 10 µM (CYP2C19): 43%; MRT [3]: 2.7 h; half-life [4]: 149 min; Tmax [5]: 1 h; Cmax [6]: 5060 ng/mL; inhibition at 10 µM (CYP3A4): 28%; inhibition at 10 µM (CYP2D6): 36%; AUC(0-inf) [7]: 15900 ng·h/mL
COc1cc2ccccc2cc1C(=O)NC(=O)Nc1ccc(-c2cscn2)cc1	42.6%	Fu [1]: < 0.3%; Fu [2]: < 0.3%
COc1ccccc1NC(=O)Nc1ccc(-c2nc3ccccc3[nH]2)cc1	23.8%	
COc1cc2ccccc2cc1C(=O)NC(=O)Nc1ccc(-c2nc3ccccc3[nH]2)cc1	90.8%	Fu [1]: < 0.3%; Fu [2]: < 0.3%
O=C(Nc1ccc(N2CCN(C(=O)c3ccc4ccccc4c3)CC2)cc1)c1cc2ccccc2o1	27.8%	
COc1ccccc1NC(=O)Nc1ccc(-c2nc3ccccc3o2)cc1	19.9%	
COc1cc2c(OC)cccc2cc1C(=O)NC(=S)Nc1ccc(-c2nc3ccccc3[nH]2)cc1	37.6%	
O=C(Nc1ccc(N2CCN(C(=O)c3ccccn3)CC2)cc1)c1cc2ccccc2o1	44.8%	

SMILES	inhibition at 25 µM (SW-620)	further results
COc1ccccc1NC(=S)Nc1ccc(-c2nc3ccccc3[nH]2)cc1	13.2%	
COc1cc2ccccc2cc1C(=O)NC(=S)Nc1ccc(-c2nc3ccccc3o2)cn1	0%	
O=C(NC(=O)c1ccc2ccccc2c1)Nc1ccc(-c2nc3ccccc3[nH]2)cc1	12.7%	
O=C(NC(=S)Nc1ccc(-c2nc3ccccc3o2)cc1)c1ccc2cccnc2c1	0%	
COc1cc2ccccc2cc1C(=O)NC(=O)Nc1ccc(-c2nc3ccccc3o2)cc1	0%	
COc1ccccc1NC(=S)Nc1ccc(-c2nc3ccccc3o2)cc1	29.2%	
COc1cc2ccccc2cc1C(=O)NC(=S)Nc1ccc(-c2nc3ccccc3[nH]2)cc1	68.4%	Fu [1]: < 0.01%; Fu [2]: < 0.03%
CCOc1cc2ccccc2cc1C(=O)NC(=S)Nc1ccc(-c2nc3ccccc3s2)cc1	13%	
COc1ccccc1C(=O)NC(=S)Nc1ccc(-c2nc3ccccc3o2)cc1	17.2%	
CC(C)Oc1cc2ccccc2cc1C(=O)NC(=S)Nc1ccc(-c2nc3ccccc3o2)cc1	17.2%	
COc1cc2ccccc2cc1C(=O)NC(=O)Nc1ccc(-c2nc3ccccc3s2)cc1	0%	
O=C(NC(=S)Nc1ccc(-c2ncco2)cc1)c1ccc2cccnc2c1	1.4%	
CCOc1cc2ccccc2cc1C(=O)NC(=S)Nc1ccc(-c2nc3ccccc3o2)cc1	0%	
O=C1c2ccccc2CCN1C(=S)Nc1ccc(-c2ncco2)cc1	0.9%	
COc1cc2ccccc2cc1C(=O)Nc1ccc(-c2nc3ccccc3s2)cc1	42.3%	
COc1cc2ccccc2cc1C(=O)NC(=S)Nc1ccc(-c2nnco2)cc1	86.5%	inhibition at 10 µM (CYP2C19): 37%; MRT [3]: 5.3 h; half-life [4]: 211 min; Tmax [5]: 2.33 h; Cmax [6]: 5100 ng/mL; inhibition at 10 µM (CYP3A4): 16%; inhibition at 10 µM (CYP2D6): 19%; AUC(0-inf) [7]: 34100 ng·h/mL
COc1cc2ccccc2cc1C(=O)NC(=S)Nc1ccc(-c2nc3ccccc3s2)cn1	71.9%	
CCOc1cc2ccccc2cc1C(=O)NC(=S)Nc1ccc(-c2nnco2)cc1	0%	
COc1cc2ccccc2cc1C(=O)NC(=S)Nc1ccc(-c2ncco2)cc1	33.1%	
